Laboratory results: US12497365B2, “4-pyridinyl formamide compound or derivative thereof, preparation method therefor, herbicidal composition and use thereof” (Qingdao Kingagroot Chemical Compound Co., Ltd., priority 2019, dated 2025)

Tests used:
Experiment in all cases: Weeding effect in post-emergence stage
Type in all cases: in vivo
Details in all cases: active ingredient 2000 g/ha, 3 weeks after application, fresh weight control rate
Descurainia sophia = tested on: Descurainia sophia
Outline: (§1)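 Seeds were covered with 0.5-2 cm soil and raised in a greenhouse for 2 weeks. At the 2-3 leaf stage, compound formulations (acetone, Tween 80, 1.5 liter/ha methyl oleate EC, water) were spray-tower applied at 2000-125 g/ha. After 3 further weeks, fresh weight control was graded.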

[1] = tested on: Amaranthus retroflexus L.
Outline: as §1

Chenopodium album = tested on: Chenopodium album
Outline: as §1

Abutilon theophrasti = tested on: Abutilon theophrasti
Outline: as §1

Compound	Weeding effect, activity level (growth control rate), Descurainia sophia (Descurainia sophia)	Weeding effect, activity level (growth control rate), Amaranthus retroflexus L. [1]	Weeding effect, activity level (growth control rate), Chenopodium album (Chenopodium album)	Weeding effect, activity level (growth control rate), Abutilon theophrasti (Abutilon theophrasti)
Cn1nnnc1NC(=O)c1ccnc(-c2cc(Br)ccc2Br)c1Cl [Compound 1-96]	5 (Level 5: growth control rate is above 85%)	5 (Level 5: growth control rate is above 85%)	5 (Level 5: growth control rate is above 85%)	5 (Level 5: growth control rate is above 85%)
Cn1nnnc1NC(=O)c1ccnc(-c2cccc(Br)c2F)c1Cl [Compound 1-97]	5 (Level 5: growth control rate is above 85%)	5 (Level 5: growth control rate is above 85%)	5 (Level 5: growth control rate is above 85%)	5 (Level 5: growth control rate is above 85%)
COC(=O)c1cc(-c2nccc(C(=O)Nc3nnnn3C)c2Cl)ccc1Cl [Compound 1-98]	5 (Level 5: growth control rate is above 85%)	5 (Level 5: growth control rate is above 85%)	5 (Level 5: growth control rate is above 85%)	5 (Level 5: growth control rate is above 85%)
COc1ccc(-c2nccc(C(=O)Nc3nnnn3C)c2Cl)cc1C=O [Compound 1-99]	5 (Level 5: growth control rate is above 85%)	5 (Level 5: growth control rate is above 85%)	5 (Level 5: growth control rate is above 85%)	5 (Level 5: growth control rate is above 85%)
Cn1nnnc1NC(=O)c1ccnc(-c2cc(C(=O)O)cc([N+](=O)[O-])c2)c1Cl [Compound 1-100]	5 (Level 5: growth control rate is above 85%)	5 (Level 5: growth control rate is above 85%)	5 (Level 5: growth control rate is above 85%)	5 (Level 5: growth control rate is above 85%)
Cn1nnnc1NC(=O)c1ccnc(-c2ccc(Cl)cc2C(F)(F)F)c1Cl [Compound 1-101]	5 (Level 5: growth control rate is above 85%)	5 (Level 5: growth control rate is above 85%)	5 (Level 5: growth control rate is above 85%)	5 (Level 5: growth control rate is above 85%)
COc1ccc(-c2nccc(C(=O)Nc3nnnn3C)c2Cl)c(Cl)c1 [Compound 1-102]	5 (Level 5: growth control rate is above 85%)	5 (Level 5: growth control rate is above 85%)	5 (Level 5: growth control rate is above 85%)	5 (Level 5: growth control rate is above 85%)
COc1ccc(Cl)c(-c2nccc(C(=O)Nc3nnnn3C)c2Cl)c1 [Compound 1-103]	5 (Level 5: growth control rate is above 85%)	5 (Level 5: growth control rate is above 85%)	5 (Level 5: growth control rate is above 85%)	5 (Level 5: growth control rate is above 85%)
COc1ccc(-c2nccc(C(=O)Nc3nnnn3C)c2Cl)c(C)c1 [Compound 1-104]	5 (Level 5: growth control rate is above 85%)	5 (Level 5: growth control rate is above 85%)	5 (Level 5: growth control rate is above 85%)	5 (Level 5: growth control rate is above 85%)
COc1ccc(-c2nccc(C(=O)Nc3nnnn3C)c2Cl)c(OC)c1 [Compound 1-105]	5 (Level 5: growth control rate is above 85%)	5 (Level 5: growth control rate is above 85%)	5 (Level 5: growth control rate is above 85%)	5 (Level 5: growth control rate is above 85%)
Cn1nnnc1NC(=O)c1ccnc(-c2ccc(OCc3ccccc3)cc2F)c1Cl [Compound 1-106]	5 (Level 5: growth control rate is above 85%)	5 (Level 5: growth control rate is above 85%)	5 (Level 5: growth control rate is above 85%)	5 (Level 5: growth control rate is above 85%)
Cn1nnnc1NC(=O)c1ccnc(-c2ccc(Oc3ccccc3)c(Cl)c2)c1Cl [Compound 1-107]	5 (Level 5: growth control rate is above 85%)	5 (Level 5: growth control rate is above 85%)	5 (Level 5: growth control rate is above 85%)	5 (Level 5: growth control rate is above 85%)
Cn1nnnc1NC(=O)c1ccnc(-c2cc(-c3ccccc3)cc(-c3ccccc3)c2)c1Cl [Compound 1-108]	5 (Level 5: growth control rate is above 85%)	5 (Level 5: growth control rate is above 85%)	5 (Level 5: growth control rate is above 85%)	5 (Level 5: growth control rate is above 85%)
Cn1nnnc1NC(=O)c1ccnc(-c2cc(F)c(F)c(F)c2)c1Cl [Compound 1-109]	5 (Level 5: growth control rate is above 85%)	5 (Level 5: growth control rate is above 85%)	5 (Level 5: growth control rate is above 85%)	5 (Level 5: growth control rate is above 85%)
COc1c(Cl)ccc(-c2nccc(C(=O)Nc3nnnn3C)c2Cl)c1F [Compound 1-110]	5 (Level 5: growth control rate is above 85%)	5 (Level 5: growth control rate is above 85%)	5 (Level 5: growth control rate is above 85%)	5 (Level 5: growth control rate is above 85%)
Cn1nnnc1NC(=O)c1ccnc(-c2cccc3ccccc23)c1Cl [Compound 1-111]	5 (Level 5: growth control rate is above 85%)	5 (Level 5: growth control rate is above 85%)	5 (Level 5: growth control rate is above 85%)	5 (Level 5: growth control rate is above 85%)
Cn1nnnc1NC(=O)c1ccnc(-c2ccc3ccccc3c2)c1Cl [Compound 1-112]	5 (Level 5: growth control rate is above 85%)	5 (Level 5: growth control rate is above 85%)	5 (Level 5: growth control rate is above 85%)	5 (Level 5: growth control rate is above 85%)
Cn1nnnc1NC(=O)c1ccnc(-c2ccc(F)c3ccccc23)c1Cl [Compound 1-113]	5 (Level 5: growth control rate is above 85%)	5 (Level 5: growth control rate is above 85%)	5 (Level 5: growth control rate is above 85%)	5 (Level 5: growth control rate is above 85%)
Cn1nnnc1NC(=O)c1ccnc(-c2cccc3cnccc23)c1Cl [Compound 1-114]	5 (Level 5: growth control rate is above 85%)	5 (Level 5: growth control rate is above 85%)	5 (Level 5: growth control rate is above 85%)	5 (Level 5: growth control rate is above 85%)
Cn1nnnc1NC(=O)c1ccnc(-c2cc3ccccc3c3ccccc23)c1Cl [Compound 1-115]	5 (Level 5: growth control rate is above 85%)	5 (Level 5: growth control rate is above 85%)	5 (Level 5: growth control rate is above 85%)	5 (Level 5: growth control rate is above 85%)
Cn1nnnc1NC(=O)c1ccnc(-c2cccc3c2oc2ccccc23)c1Cl [Compound 1-116]	5 (Level 5: growth control rate is above 85%)	5 (Level 5: growth control rate is above 85%)	5 (Level 5: growth control rate is above 85%)	5 (Level 5: growth control rate is above 85%)
